From patent US7396837B2, “Antitumoral analogs of lamellarins” (Pharma Mar, S.A.U., priority 2002, dated 2008)

How the values were obtained:
human topoisomerase I = target: T1, human topoisomerase I (Homo sapiens, UniProt P11387); assay: Topoisomerase I DNA relaxation assay (supercoiled plasmid DNA); type: biochemical; details: supercoiled plasmid DNA, each compound tested at 1 μM, agarose gel with ethidium bromide
T1 sequence (P11387 1-765): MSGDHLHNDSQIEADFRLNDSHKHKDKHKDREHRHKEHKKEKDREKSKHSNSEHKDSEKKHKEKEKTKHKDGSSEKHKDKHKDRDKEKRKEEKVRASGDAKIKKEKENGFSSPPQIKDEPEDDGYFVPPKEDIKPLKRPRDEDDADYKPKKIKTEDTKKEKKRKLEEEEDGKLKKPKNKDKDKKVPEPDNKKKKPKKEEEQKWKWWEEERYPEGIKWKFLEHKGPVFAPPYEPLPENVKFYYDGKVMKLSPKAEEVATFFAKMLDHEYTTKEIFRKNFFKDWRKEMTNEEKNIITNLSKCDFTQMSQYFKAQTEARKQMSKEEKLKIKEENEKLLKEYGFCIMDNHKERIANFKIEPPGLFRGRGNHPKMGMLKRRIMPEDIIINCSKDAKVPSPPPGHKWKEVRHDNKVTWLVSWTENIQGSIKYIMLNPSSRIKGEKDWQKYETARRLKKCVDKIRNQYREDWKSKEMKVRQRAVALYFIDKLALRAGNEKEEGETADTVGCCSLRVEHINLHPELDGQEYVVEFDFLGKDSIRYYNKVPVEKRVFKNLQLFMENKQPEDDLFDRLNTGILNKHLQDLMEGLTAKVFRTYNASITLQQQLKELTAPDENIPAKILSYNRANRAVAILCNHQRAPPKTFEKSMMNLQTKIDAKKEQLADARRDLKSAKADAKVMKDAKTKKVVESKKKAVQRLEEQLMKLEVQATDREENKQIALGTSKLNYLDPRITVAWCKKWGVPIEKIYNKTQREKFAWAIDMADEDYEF
Protocol: Two assays, based on DNA relaxation and DNA cleavage (Bailly, C. DNA relaxation and cleavage assays to study topoisomerase I inhibitors. Methods Enzymol. 2001, 340, 610-623) were used evaluate the effects of the lamellarin analogs on the catalytic activity of human topoisomerase I.
In the first assay, a supercoiled plasmid DNA was relaxed with topoisomerase I in the absence or presence of the test compounds, each tested at 1 μM. DNA relaxation products were then resolved by gel electrophoresis on agarose gels containing ethidium bromide to stain the DNA.

A-549 = assay: SRB colorimetric cell growth inhibition assay, A-549; type: cell-based
Procedure, shortened: (§1)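 Human tumour cells were exposed continuously to the test sample, and growth and viability were quantified by sulforhodamine B staining. Means ± SD came from triplicate wells, and GI, TGI (cytostatic) and LC (cell killing) parameters were derived.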

HT-29 = assay: SRB colorimetric cell growth inhibition assay, HT-29; type: cell-based
Procedure, shortened: as §1

SK-BR-3 = assay: SRB colorimetric cell growth inhibition assay, SK-BR-3; type: cell-based
Procedure, shortened: as §1

DU-145 = assay: SRB colorimetric cell growth inhibition assay, DU-145; type: cell-based
Procedure, shortened: as §1

SK-MEL-28 = assay: SRB colorimetric cell growth inhibition assay, SK-MEL-28; type: cell-based
Procedure, shortened: as §1

LoVo-Dox = assay: SRB colorimetric cell growth inhibition assay, LoVo-Dox (MDR); type: cell-based
Procedure, shortened: as §1

PANC-1 = assay: SRB colorimetric cell growth inhibition assay, PANC-1; type: cell-based
Procedure, shortened: as §1

LoVo = assay: SRB colorimetric cell growth inhibition assay, LoVo; type: cell-based
Procedure, shortened: as §1

K-562 = assay: SRB colorimetric cell growth inhibition assay, K-562; type: cell-based
Procedure, shortened: as §1

IGROV-ET = assay: SRB colorimetric cell growth inhibition assay, IGROV-ET (ET-743 resistant); type: cell-based
Procedure, shortened: as §1

LNCaP = assay: SRB colorimetric cell growth inhibition assay, LNCaP; type: cell-based
Procedure, shortened: as §1

IGROV = assay: SRB colorimetric cell growth inhibition assay, IGROV; type: cell-based
Procedure, shortened: as §1

COc1cc(-c2c3n(c4c(=O)oc5cc(OC(C)=O)c(OC)cc5c24)CCc2cc(OC(C)=O)c(OC)cc2-3)ccc1OC(C)=O [Compound 108]
stimulation of DNA cleavage by topoisomerase I / inhibition of topoisomerase I (nicked DNA band) in DNA relaxation assay (human topoisomerase I): inactive

COc1cc(-c2c3c4cc(OC)c(OC(=O)[C@H](NC(=O)OC(C)(C)C)C(C)C)cc4oc(=O)c3n3ccc4cc(OC(=O)[C@H](NC(=O)OC(C)(C)C)C(C)C)c(OC)cc4c23)ccc1OC(=O)[C@H](NC(=O)OC(C)(C)C)C(C)C [Compound 122]
stimulation of DNA cleavage by topoisomerase I / inhibition of topoisomerase I (nicked DNA band) in DNA relaxation assay (human topoisomerase I): No effect

COc1cc(-c2c3n(c4c(=O)oc5cc(OC(=O)[C@@H](N)C(C)C)c(OC)cc5c24)CCc2cc(OC(=O)[C@@H](N)C(C)C)c(OC)cc2-3)ccc1OC(=O)[C@@H](N)C(C)C [Compound 135]
GI50 (A-549; A-549, GI=growth inhibition, read-out: GI50 A-549): 3.34 µM
IC (TGI) (A-549; Homo sapiens, A549, A-549, total growth inhibition (cytostatic effect), read-out: TGI A-549): 8.76 µM
CC50 (A-549; Homo sapiens, A549, read-out: LC50 A-549, A-549, cell killing (cytotoxic effect)): 8.76 µM
GI50 (HT-29; HT-29, GI=growth inhibition, read-out: GI50 HT-29): 1.15 µM
IC (TGI) (HT-29; Homo sapiens, HT-29, HT-29, total growth inhibition (cytostatic effect), read-out: TGI HT-29): 4.82 µM
CC50 (HT-29; Homo sapiens, HT-29, read-out: LC50 HT-29, HT-29, cell killing (cytotoxic effect)): 8.76 µM
GI50 (SK-BR-3; SK-BR-3, GI=growth inhibition, read-out: GI50 SK-BR-3): 0.579 µM
TGI SK-BR-3 (SK-BR-3; SK-BR-3, total growth inhibition (cytostatic effect)): 2.61E−06 Molar
CC50 (SK-BR-3; human): 8.76 µM
GI50 (DU-145; DU-145, GI=growth inhibition, read-out: GI50 DU-145): 1.6 µM
TGI DU-145 (DU-145; DU-145, total growth inhibition (cytostatic effect)): 3.78E−06 Molar
CC50 (DU-145; human): 8.76 µM
stimulation of DNA cleavage by topoisomerase I / inhibition of topoisomerase I (nicked DNA band) in DNA relaxation assay (human topoisomerase I): No effect
GI50 (SK-MEL-28; MEL-28, GI=growth inhibition, read-out: GI50 MEL-28): 1.67 µM
TGI MEL-28 (SK-MEL-28; MEL-28, total growth inhibition (cytostatic effect)): 5.00E−06 Molar
CC50 (SK-MEL-28; human): 8.76 µM
IC (TGI) (LoVo-Dox; Homo sapiens, LOVO-DOX, total growth inhibition (cytostatic effect), read-out: TGI LOVO-DOX): 8.76 µM
CC50 (LoVo-Dox; Homo sapiens, read-out: LC50 LOVO-DOX, LOVO-DOX, cell killing (cytotoxic effect)): 8.76 µM
GI50 (LoVo-Dox; LOVO-DOX, GI=growth inhibition, read-out: GI50 LOVO-DOX): 3.8 µM
IC (TGI) (PANC-1; Homo sapiens, PANC-1, PANC-1, total growth inhibition (cytostatic effect), read-out: TGI PANC-1): 5.53 µM
CC50 (PANC-1; Homo sapiens, PANC-1, read-out: LC50 PANC-1, PANC-1, cell killing (cytotoxic effect)): 8.76 µM
GI50 (PANC-1; PANC-1, GI=growth inhibition, read-out: GI50 PANC-1): 2.11 µM
CC50 (LoVo; Homo sapiens, LoVo, read-out: LC50 LOVO, LOVO, cell killing (cytotoxic effect)): 8.76 µM
IC (TGI) (LoVo; Homo sapiens, LOVO, total growth inhibition (cytostatic effect), read-out: TGI LOVO): 8.76 µM
GI50 (LoVo; LOVO, GI=growth inhibition, read-out: GI50 LOVO): 2.69 µM
IC (TGI) (K-562; Homo sapiens, K562, K-562, total growth inhibition (cytostatic effect), read-out: TGI K-562): 6.82 µM
CC50 (K-562; Homo sapiens, K562, read-out: LC50 K-562, K-562, cell killing (cytotoxic effect)): 8.76 µM
GI50 (K-562; K-562, GI=growth inhibition, read-out: GI50 K-562): 1.07 µM
GI50 (IGROV-ET; IGROV-ET, GI=growth inhibition, read-out: GI50 IGROV-ET): 0.586 µM
TGI IGROV-ET (IGROV-ET; IGROV-ET, total growth inhibition (cytostatic effect)): 1.98E−06 Molar
CC50 (IGROV-ET; human): 6.33 µM
GI50 (LNCaP; LN-caP, GI=growth inhibition, read-out: GI50 LN-caP): 0.783 µM
TGI LN-caP (LNCaP; LN-caP, total growth inhibition (cytostatic effect)): 2.02E−06 Molar
CC50 (LNCaP; human): 4.91 µM
GI50 (IGROV; IGROV, GI=growth inhibition, read-out: GI50 IGROV): 2.1 µM
TGI IGROV (IGROV; IGROV, total growth inhibition (cytostatic effect)): 4.68E−06 Molar
CC50 (IGROV; human): 8.76 µM
